Source: patent publication US20230390353A1, “PHARMACEUTICAL COMPOSITION FOR TREATING MYOCARDIAL ISCHEMIA AND PREPARATION METHOD THEREFOR” (TASLY PHARMACEUTICAL GROUP CO., LTD., priority 2021, published 2023)

Tests used:
[1] = tested on: rats with myocardial ischemia; assay: Weight-bearing swimming duration test in rats with myocardial ischemia; format: in vivo, SD rats; settings: gavage, Day 30, 60 min after dose, 5% load
Excerpt: 110 experimental animals were purchased, of which 10 animals were set as a sham-operation group, and 100 animals were used for modeling left anterior descending coronary artery ligation. After modeling, surviving rats were randomly divided into a vehicle control group, a traditional Chinese medicine group, a ranolazine group 1, a ranolazine group 2, a ranolazine group 3, a pharmaceutical composition group 1 of the present invention and a pharmaceutical composition group 2 of the present invention according to body weight. After therapeutic administration for 28 days, the rats from the vehicle control group were given the same amount of menstruum by gavage. On the 28th day of intragastric administration, 6 rats in each group were randomly selected for echocardiography. After intragastric administration of 60 min on Day 30, a weight-bearing swimming test was performed, and animal samples were taken after the end of weight-bearing swimming. After intragastric administration of 60 min on Day 30, the experimental animals were subjected to the weight-bearing swimming test. After weighing, the rats, fixed a 5% weight of its body weight on the tail were placed in a transparent container filled with water with an inner diameter of 19 cm and a water depth of 30 cm. The water temperature was 25±2° C. The rats swimming to exhaustion were judged by the standard of losing balance and the head submerged for more than 10 seconds. The time of swimming was recorded as the time of weight-bearing swimming.

[2] = tested on: rats with myocardial ischemia; assay: Myocardial histopathology detection in rats with myocardial ischemia; format: in vivo, SD rats; settings: myocardial pathology
Excerpt: 110 experimental animals were purchased, of which 10 animals were set as a sham-operation group, and 100 animals were used for modeling left anterior descending coronary artery ligation. After modeling, surviving rats were randomly divided into a vehicle control group, a traditional Chinese medicine group, a ranolazine group 1, a ranolazine group 2, a ranolazine group 3, a pharmaceutical composition group 1 of the present invention and a pharmaceutical composition group 2 of the present invention according to body weight. After therapeutic administration for 28 days, the rats from the vehicle control group were given the same amount of menstruum by gavage. On the 28th day of intragastric administration, 6 rats in each group were randomly selected for echocardiography. After intragastric administration of 60 min on Day 30, a weight-bearing swimming test was performed, and animal samples were taken after the end of weight-bearing swimming. […] The administration of the pharmaceutical composition of the present invention could reduce myocardial fibrosis to varying degrees, causing a certain protective effect on the ischemic myocardium, and the effect of the pharmaceutical composition group 2 of the present invention was better.

normal mice = assay: Weight-bearing swimming time in normal mice; format: in vivo; settings: normal BALB/c mice, 7 days pre-administration, 30 min after last administration, 5% body weight load; ranolazine 205 mg/kg, traditional Chinese medicine 68 mg/kg, composition 34 + ranolazine 102 mg/kg
Method: According to the reference, 40 male mice are randomly divided into 4 groups (n=10): a normal group, a ranolazine group, a traditional Chinese medicine group and a pharmaceutical composition group of the present invention are administered in advance for 7 days, and the mice in the normal group are administered intragastrically with equivalent distilled water. Swimming tests are performed 30 min after the last administration. Mice are fixed a 5% weight of its body weight on the tail, and then placed in a large container filled with water of about 20 cm. Water should not be overfilled, so as to prevent mice from jumping out. The mice are forced to swim to exhaustion until they swim to death, and the time is recorded as the weight-bearing swimming time of the mice. See Table 5 for grouping and dose setting.

myocardial Na^+—K^+-ATP = assay: Energy metabolism related enzyme detection, myocardial Na+-K+-ATP activity; format: in vivo, SD rats; settings: myocardium of myocardial ischemia rats after treatment
Excerpt: (§1) 110 experimental animals were purchased, of which 10 animals were set as a sham-operation group, and 100 animals were used for modeling left anterior descending coronary artery ligation. After modeling, surviving rats were randomly divided into a vehicle control group, a traditional Chinese medicine group, a ranolazine group 1, a ranolazine group 2, a ranolazine group 3, a pharmaceutical composition group 1 of the present invention and a pharmaceutical composition group 2 of the present invention according to body weight. After therapeutic administration for 28 days, the rats from the vehicle control group were given the same amount of menstruum by gavage. On the 28th day of intragastric administration, 6 rats in each group were randomly selected for echocardiography. After intragastric administration of 60 min on Day 30, a weight-bearing swimming test was performed, and animal samples were taken after the end of weight-bearing swimming.

[3] = tested on: rats with myocardial ischemia; assay: Echocardiography (cardiac function) in rats with myocardial ischemia; format: in vivo, SD rats; settings: Day 28, 60 min after gavage
Excerpt: as §1, with “After” for “110 experimental animals were purchased, of which 10 animals were set as a sham-operation group, and 100 animals were used for modeling left anterior descending coronary artery ligation. After”, “swimming. After intragastric administration of 60 min on Day 28, 6 rats in each group were randomly selected, and the cardiac function was detected by a portable b-ultrasound instrument. The changes of cardiac ejection fraction (EF) and E/A were detected.” for “swimming.”

[4] = tested on: myocardial Ca^2+—Mg^2+-ATP; assay: Energy metabolism related enzyme detection, myocardial Ca2+-Mg2+-ATP activity; format: in vivo, SD rats; settings: myocardium of myocardial ischemia rats after treatment
Excerpt: as §1

With `COc1ccccc1OCC(O)CN1CCN(CC(=O)Nc2c(C)cccc2C)CC1` (racemic) [Ranolazine, (±)-N-(2,6-dimethylphenyl)-4-[2-hydroxy-3-(2-methoxyphenoxy)propyl]-1-piperazine acetamide] the Weight-bearing swimming duration ([1]; ranolazine group 1, 100 mg/kg) was 1927 ± 1450 s, the Weight-bearing swimming duration ([1]; ranolazine group 2, 50 mg/kg) was 1268 ± 513 s and the Weight-bearing swimming duration ([1]; ranolazine group 3, 25 mg/kg) was 1108 ± 358 s. The “Basically normal (number of cases)” value ([2]; ranolazine group 1, 100 mg/kg) was 4 number of cases, the “Mild (cardiac muscle fiber partially replaced by collagen fiber)” value (shortened to “Mild”) ([2]; ranolazine group 1, 100 mg/kg) was 1 number of cases and the “Severe (decreased myocardial thickness, and occurrence of transmural myocardial infarction)” value ([2]; ranolazine group 1, 100 mg/kg) was 1 number of cases. The “Basically normal (number of cases)” value ([2]; ranolazine group 2, 50 mg/kg) was 3 number of cases, the “Mild” value ([2]; ranolazine group 2, 50 mg/kg) was 1 number of cases and the “Severe (decreased myocardial thickness, and occurrence of transmural myocardial infarction)” value ([2]; ranolazine group 2, 50 mg/kg) was 2 number of cases. The “Basically normal (number of cases)” value ([2]; ranolazine group 3, 25 mg/kg) was 2 number of cases, the “Mild” value ([2]; ranolazine group 3, 25 mg/kg) was 2 number of cases and the “Severe (decreased myocardial thickness, and occurrence of transmural myocardial infarction)” value ([2]; ranolazine group 3, 25 mg/kg) was 2 number of cases. For the same compound, the Swimming time (normal mice) was 3746 ± 1837 s, the “Na^+—K^+-ATP” value (myocardial Na^+—K^+-ATP; ranolazine group 1, 100 mg/kg) was 46.04 ± 8.57 µmol/h/g and the “Na^+—K^+-ATP” value (myocardial Na^+—K^+-ATP; ranolazine group 2, 50 mg/kg) was 47.10 ± 6.57 µmol/h/g. For the same compound, the “Na^+—K^+-ATP” value (myocardial Na^+—K^+-ATP; ranolazine group 3, 25 mg/kg) was 34.98 ± 9.26 µmol/h/g, the E/A ([3]; ranolazine group 1, 100 mg/kg) was 1.10 ± 0.09 and the “Ejection Fraction (EF %)” value ([3]; ranolazine group 1, 100 mg/kg) was 55.32 ± 2.76 %. The E/A ([3]; ranolazine group 2, 50 mg/kg) was 1.06 ± 0.13, the “Ejection Fraction (EF %)” value ([3]; ranolazine group 2, 50 mg/kg) was 50.52 ± 2.15 % and the E/A ([3]; ranolazine group 3, 25 mg/kg) was 0.92 ± 0.08. For the same compound, the “Ejection Fraction (EF %)” value ([3]; ranolazine group 3, 25 mg/kg) was 45.03 ± 1.57 %, the “Ca^2+—Mg^2+-ATP” value ([4]; ranolazine group 1, 100 mg/kg) was 37.99 ± 8.20 µmol/h/g and the “Ca^2+—Mg^2+-ATP” value ([4]; ranolazine group 2, 50 mg/kg) was 50.92 ± 6.18 µmol/h/g. For the same compound, the “Ca^2+—Mg^2+-ATP” value ([4]; ranolazine group 3, 25 mg/kg) was 29.96 ± 7.66 µmol/h/g.
